Measurements from ChEMBL document CHEMBL1833872, “Improved synthesis and biological evaluation of chelator-modified α-MSH analogs prepared by copper-free click chemistry” (Bioorg Med Chem Lett, 2011).

Biological target: Melanocyte-stimulating hormone receptor (Mus musculus, UniProt Q01727)
Test: Displacement of [125I]-[Nle4-D-Phe7]-alpha-MSH from MC1R in mouse B16-F10 cells after 1.5 hrs by gamma counting
Format: cell-based

Sequence of Melanocyte-stimulating hormone receptor (Q01727 whole entry): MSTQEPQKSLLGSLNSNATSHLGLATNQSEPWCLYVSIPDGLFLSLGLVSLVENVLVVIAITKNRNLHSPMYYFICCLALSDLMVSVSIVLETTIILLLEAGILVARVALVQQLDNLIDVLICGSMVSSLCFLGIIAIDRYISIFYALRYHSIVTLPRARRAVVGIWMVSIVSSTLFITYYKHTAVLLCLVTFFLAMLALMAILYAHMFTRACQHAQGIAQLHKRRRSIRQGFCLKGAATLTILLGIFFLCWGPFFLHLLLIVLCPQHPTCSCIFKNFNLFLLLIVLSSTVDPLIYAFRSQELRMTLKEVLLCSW

IC50: 0.25 nM
Structure (SMILES): CCCC[C@H](NC(=O)[C@H](CO)NC(=O)[C@H](Cc1ccc(O)cc1)NC(=O)[C@H](CO)NCCCCCCN=[N+]=[N-])C(=O)N[C@@H](CCC(=O)O)C(=O)N[C@@H](Cc1cnc[nH]1)C(=O)N[C@H](Cc1ccccc1)C(=O)N[C@@H](CCCN=C(N)N)C(=O)N[C@@H](Cc1c[nH]c2ccccc12)C(=O)NCC(=O)N[C@@H](CCCCN)C(=O)N1CCC[C@H]1C(=O)N[C@H](C(N)=O)C(C)C
